Among the data in patent US20260022142A1, “MACROCYCLIC IMMUNOMODULATORS” (Bristol-Myers Squibb Company, priority 2022, published 2026) are IC50 values, retold here.

Structures are written as SMILES. pIC50: −log10 of the molar value. Bridge positions count the residues as written; N and C are the ends. Square brackets hold non-standard residues; d marks the D form. Peptide text beside a SMILES is read from it. * marks the point of attachment. Phe(3-CF3) = N[C@@H](Cc1cccc(C(F)(F)F)c1)C(=O)O; Ala(morpholin-4-yl) = N[C@@H](CN1CCOCC1)C(=O)O; Phe(4-COOH) = N[C@@H](Cc1ccc(C(=O)O)cc1)C(=O)O; Bip = N[C@@H](Cc1ccc(-c2ccccc2)cc1)C(=O)O; NH(CH2)14COOH = O=C(O)CCCCCCCCCCCCCCN*; NH(CH2)12COOH = O=C(O)CCCCCCCCCCCCN*; Val(3-OH) = CC(C)(O)[C@H](N)C(=O)O; Cha = N[C@@H](CC1CCCCC1)C(=O)O; PEG4 = NCCOCCOCCOCCOCCC(=O)O; Carboxymethyl = O=C(O)C*; Nle = CCCC[C@H](N)C(=O)O; Orn = NCCC[C@H](N)C(=O)O; Dab = NCC[C@H](N)C(=O)O; AEEA = NCCOCCOCC(=O)O

T1 sequence (Q15116 25-288): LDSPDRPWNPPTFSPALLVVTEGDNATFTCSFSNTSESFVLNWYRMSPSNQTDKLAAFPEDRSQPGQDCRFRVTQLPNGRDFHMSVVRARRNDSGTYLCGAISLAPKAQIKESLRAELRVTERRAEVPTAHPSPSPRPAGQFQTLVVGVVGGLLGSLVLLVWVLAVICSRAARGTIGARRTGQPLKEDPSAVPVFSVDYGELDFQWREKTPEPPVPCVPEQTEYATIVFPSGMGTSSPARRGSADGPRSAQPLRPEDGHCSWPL

This assay concerns the target T1, PD-1/PD-L1 interaction (PE-labeled human PD-L1-Ig binding to Jurkat cell line over-expressing human PD-1) (Homo sapiens, UniProt Q15116).
T1 construct: expressed in transfected cells; host or cells: Jurkat
The assay can be described thus: Jurkat-PD-1 Cell Binding High-Content Screening Assay (CBA). Type of assay: cell-based. To be noted: Jurkat cell line over-expressing human PD-1; PE-labeled PD-L1-Ig 20 nM final; read-out: Jurkat hPD1-PDL1 IC50. The method in brief: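 Jurkat-hPD-1 cells, DMEM/10% FCS; cpd 2 h 37° C; PE-PD-L1-Ig 20 nM final, 1 h; 4% PFA fix + Hoechst 33342, 3× dPBS wash; high-content imaging read-out.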
The term pIC50 denotes the negative decadic logarithm of the IC50, by convention in mol/L. On to `CCCC[C@@H]1NC(=O)CSC[C@@H](C(=O)N[C@@H](CCN)C(=O)NCCOCCOCC(=O)NCCOCCOCC(=O)NCCCCCCCCCCCCC(=O)O)NC(=O)[C@H](CO)NC(=O)[C@H](C(C)(C)O)NC(=O)[C@H](CC2CCCCC2)NC(=O)[C@H](CCN)NC(=O)[C@@H](CC(C)C)NC(=O)[C@H](CCCN)NC(=O)[C@H](Cc2ccc(C(=O)O)cc2)NC(=O)[C@H](Cc2ccc(-c3ccccc3)cc2)NC(=O)[C@H](Cc2ccc(C(=O)O)cc2)NC(=O)[C@H](Cc2cccc(C(F)(F)F)c2)NC(=O)[C@H](CC(=O)O)NC(=O)[C@H](Cc2ccc(OCC(=O)O)cc2)NC1=O` [Compound 2909] ({CH2CO}-[Nle]Y(Carboxymethyl)D[Phe(3-CF3)][Phe(4-COOH)][Bip][Phe(4-COOH)][Orn][dL][Dab][Cha][Val(3-OH)]SC[Dab][AEEA][AEEA]-{NH(CH2)12COOH}; thioether N-14), for which the pIC50 was 7.74. The figure for `CCCC[C@@H]1NC(=O)CSC[C@@H](C(=O)N[C@@H](CCN)C(=O)NCCOCCOCCOCCOCCC(=O)NCCCCCCCCCCCCC(=O)O)NC(=O)[C@H](CO)NC(=O)[C@H](C(C)(C)O)NC(=O)[C@H](CC2CCCCC2)NC(=O)[C@H](CCN)NC(=O)[C@@H](CC(C)C)NC(=O)[C@H](CCCN)NC(=O)[C@H](Cc2ccc(C(=O)O)cc2)NC(=O)[C@H](Cc2ccc(-c3ccccc3)cc2)NC(=O)[C@H](Cc2ccc(C(=O)O)cc2)NC(=O)[C@H](Cc2cccc(C(F)(F)F)c2)NC(=O)[C@H](CC(=O)O)NC(=O)[C@H](Cc2ccc(OCC(=O)O)cc2)NC1=O` [Compound 2911] ({CH2CO}-[Nle]Y(Carboxymethyl)D[Phe(3-CF3)][Phe(4-COOH)][Bip][Phe(4-COOH)][Orn][dL][Dab][Cha][Val(3-OH)]SC[Dab][PEG4]-{NH(CH2)12COOH}; thioether N-14) is 7.46; for `CCCC[C@@H]1NC(=O)CSC[C@@H](C(=O)N[C@@H](CCN)C(=O)NCCOCCOCCOCCOCCC(=O)NCCCCCCCCCCCCCCC(=O)O)NC(=O)[C@H](CO)NC(=O)[C@H](C(C)(C)O)NC(=O)[C@H](CC2CCCCC2)NC(=O)[C@H](CCN)NC(=O)[C@@H](CC(C)C)NC(=O)[C@H](CCCN)NC(=O)[C@H](Cc2ccc(C(=O)O)cc2)NC(=O)[C@H](Cc2ccc(-c3ccccc3)cc2)NC(=O)[C@H](Cc2ccc(C(=O)O)cc2)NC(=O)[C@H](Cc2cccc(C(F)(F)F)c2)NC(=O)[C@H](CC(=O)O)NC(=O)[C@H](Cc2ccc(OCC(=O)O)cc2)NC1=O` [Compound 2912] ({CH2CO}-[Nle]Y(Carboxymethyl)D[Phe(3-CF3)][Phe(4-COOH)][Bip][Phe(4-COOH)][Orn][dL][Dab][Cha][Val(3-OH)]SC[Dab][PEG4]-{NH(CH2)14COOH}; thioether N-14) it is 6.62; for `CCCC[C@@H]1NC(=O)CSC[C@@H](C(=O)N[C@@H](CCN)C(=O)NCCCCCCCCCCCCCCC(=O)O)NC(=O)[C@H](CO)NC(=O)[C@H](C(C)(C)O)NC(=O)[C@H](CC2CCCCC2)NC(=O)[C@H](CCN)NC(=O)[C@@H](CC(C)C)NC(=O)[C@H](CCCN)NC(=O)[C@H](Cc2ccc(C(=O)O)cc2)NC(=O)[C@H](Cc2ccc(-c3ccccc3)cc2)NC(=O)[C@H](Cc2ccc(C(=O)O)cc2)NC(=O)[C@H](Cc2cccc(C(F)(F)F)c2)NC(=O)[C@H](CC(=O)O)NC(=O)[C@H](Cc2ccc(OCC(=O)O)cc2)NC1=O` [Compound 2913] ({CH2CO}-[Nle]Y(Carboxymethyl)D[Phe(3-CF3)][Phe(4-COOH)][Bip][Phe(4-COOH)][Orn][dL][Dab][Cha][Val(3-OH)]SC[Dab]-{NH(CH2)14COOH}; thioether N-14) it is 6.20. Under `CC(C)C[C@H]1NC(=O)[C@H](CCCN)NC(=O)[C@H](Cc2ccc(C(=O)O)cc2)NC(=O)[C@H](Cc2ccc(-c3ccccc3)cc2)NC(=O)[C@H](Cc2ccc(C(=O)O)cc2)NC(=O)[C@H](Cc2cccc(C(F)(F)F)c2)NC(=O)[C@H](CC(=O)O)NC(=O)[C@H](Cc2ccc(OCC(=O)O)cc2)NC(=O)[C@H](CN2CCOCC2)NC(=O)CSC[C@@H](C(=O)N[C@@H](CCN)C(=O)NCCOCCOCC(=O)NCCOCCOCC(=O)NCCCCCCCCCCCCC(=O)O)NC(=O)[C@H](CO)NC(=O)[C@H](C(C)(C)O)NC(=O)[C@H](CC2CCCCC2)NC(=O)[C@H](CCN)NC1=O` [Compound 2914] ({CH2CO}-[Ala(morpholin-4-yl)]Y(Carboxymethyl)D[Phe(3-CF3)][Phe(4-COOH)][Bip][Phe(4-COOH)][Orn][dL][Dab][Cha][Val(3-OH)]SC[Dab][AEEA][AEEA]-{NH(CH2)12COOH}; thioether N-14) stands 7.62. The figure for `CC(C)C[C@H]1NC(=O)[C@H](CCCN)NC(=O)[C@H](Cc2ccc(C(=O)O)cc2)NC(=O)[C@H](Cc2ccc(-c3ccccc3)cc2)NC(=O)[C@H](Cc2ccc(C(=O)O)cc2)NC(=O)[C@H](Cc2cccc(C(F)(F)F)c2)NC(=O)[C@H](CC(=O)O)NC(=O)[C@H](Cc2ccc(OCC(=O)O)cc2)NC(=O)[C@H](CN2CCOCC2)NC(=O)CSC[C@@H](C(=O)N[C@@H](CCN)C(=O)NCCOCCOCC(=O)NCCOCCOCC(=O)NCCCCCCCCCCCCCCC(=O)O)NC(=O)[C@H](CO)NC(=O)[C@H](C(C)(C)O)NC(=O)[C@H](CC2CCCCC2)NC(=O)[C@H](CCN)NC1=O` [Compound 2915] ({CH2CO}-[Ala(morpholin-4-yl)]Y(Carboxymethyl)D[Phe(3-CF3)][Phe(4-COOH)][Bip][Phe(4-COOH)][Orn][dL][Dab][Cha][Val(3-OH)]SC[Dab][AEEA][AEEA]-{NH(CH2)14COOH}; thioether N-14) is 6.75. With `CC(C)C[C@H]1NC(=O)[C@H](CCCN)NC(=O)[C@H](Cc2ccc(C(=O)O)cc2)NC(=O)[C@H](Cc2ccc(-c3ccccc3)cc2)NC(=O)[C@H](Cc2ccc(C(=O)O)cc2)NC(=O)[C@H](Cc2cccc(C(F)(F)F)c2)NC(=O)[C@H](CC(=O)O)NC(=O)[C@H](Cc2ccc(OCC(=O)O)cc2)NC(=O)[C@H](CN2CCOCC2)NC(=O)CSC[C@@H](C(=O)N[C@@H](CCN)C(=O)NCCOCCOCCOCCOCCC(=O)NCCCCCCCCCCCCC(=O)O)NC(=O)[C@H](CO)NC(=O)[C@H](C(C)(C)O)NC(=O)[C@H](CC2CCCCC2)NC(=O)[C@H](CCN)NC1=O` [Compound 2916] ({CH2CO}-[Ala(morpholin-4-yl)]Y(Carboxymethyl)D[Phe(3-CF3)][Phe(4-COOH)][Bip][Phe(4-COOH)][Orn][dL][Dab][Cha][Val(3-OH)]SC[Dab][PEG4]-{NH(CH2)12COOH}; thioether N-14), the pIC50 was 7.60. The figure for `CC(C)C[C@H]1NC(=O)[C@H](CCCN)NC(=O)[C@H](Cc2ccc(C(=O)O)cc2)NC(=O)[C@H](Cc2ccc(-c3ccccc3)cc2)NC(=O)[C@H](Cc2ccc(C(=O)O)cc2)NC(=O)[C@H](Cc2cccc(C(F)(F)F)c2)NC(=O)[C@H](CC(=O)O)NC(=O)[C@H](Cc2ccc(OCC(=O)O)cc2)NC(=O)[C@H](CN2CCOCC2)NC(=O)CSC[C@@H](C(=O)N[C@@H](CCN)C(=O)NCCOCCOCCOCCOCCC(=O)NCCCCCCCCCCCCCCC(=O)O)NC(=O)[C@H](CO)NC(=O)[C@H](C(C)(C)O)NC(=O)[C@H](CC2CCCCC2)NC(=O)[C@H](CCN)NC1=O` [Compound 2917] ({CH2CO}-[Ala(morpholin-4-yl)]Y(Carboxymethyl)D[Phe(3-CF3)][Phe(4-COOH)][Bip][Phe(4-COOH)][Orn][dL][Dab][Cha][Val(3-OH)]SC[Dab][PEG4]-{NH(CH2)14COOH}; thioether N-14) is 6.87; for `CC(C)C[C@H]1NC(=O)[C@H](CCCN)NC(=O)[C@H](Cc2ccc(C(=O)O)cc2)NC(=O)[C@H](Cc2ccc(-c3ccccc3)cc2)NC(=O)[C@H](Cc2ccc(C(=O)O)cc2)NC(=O)[C@H](Cc2cccc(C(F)(F)F)c2)NC(=O)[C@H](CC(=O)O)NC(=O)[C@H](Cc2ccc(OCC(=O)O)cc2)NC(=O)[C@H](CN2CCOCC2)NC(=O)CSC[C@@H](C(=O)N[C@@H](CCN)C(=O)NCCCCCCCCCCCCC(=O)O)NC(=O)[C@H](CO)NC(=O)[C@H](C(C)(C)O)NC(=O)[C@H](CC2CCCCC2)NC(=O)[C@H](CCN)NC1=O` [Compound 2918] ({CH2CO}-[Ala(morpholin-4-yl)]Y(Carboxymethyl)D[Phe(3-CF3)][Phe(4-COOH)][Bip][Phe(4-COOH)][Orn][dL][Dab][Cha][Val(3-OH)]SC[Dab]-{NH(CH2)12COOH}; thioether N-14) it is 7.65.

On to `CC(C)C[C@H]1NC(=O)[C@H](CCCN)NC(=O)[C@H](Cc2ccc(C(=O)O)cc2)NC(=O)[C@H](Cc2ccc(-c3ccccc3)cc2)NC(=O)[C@H](Cc2ccc(C(=O)O)cc2)NC(=O)[C@H](Cc2cccc(C(F)(F)F)c2)NC(=O)[C@H](CC(=O)O)NC(=O)[C@H](Cc2ccc(OCC(=O)O)cc2)NC(=O)[C@H](CN2CCOCC2)NC(=O)CSC[C@@H](C(=O)N[C@@H](CCN)C(=O)NCCCCCCCCCCCCCCC(=O)O)NC(=O)[C@H](CO)NC(=O)[C@H](C(C)(C)O)NC(=O)[C@H](CC2CCCCC2)NC(=O)[C@H](CCN)NC1=O` [Compound 2919] ({CH2CO}-[Ala(morpholin-4-yl)]Y(Carboxymethyl)D[Phe(3-CF3)][Phe(4-COOH)][Bip][Phe(4-COOH)][Orn][dL][Dab][Cha][Val(3-OH)]SC[Dab]-{NH(CH2)14COOH}; thioether N-14), for which the pIC50 was 6.43. The figure for `CC(C)C[C@H]1NC(=O)[C@H](CCCN)NC(=O)[C@H](Cc2ccc(C(=O)O)cc2)NC(=O)[C@H](Cc2ccc(-c3ccccc3)cc2)NC(=O)[C@H](Cc2ccc(C(=O)O)cc2)NC(=O)[C@H](Cc2cccc(C(F)(F)F)c2)NC(=O)[C@H](CC(=O)O)NC(=O)[C@H](Cc2ccc(OCC(=O)O)cc2)NC(=O)[C@H](CN2CCOCC2)NC(=O)CSC[C@@H](C(=O)N[C@@H](CCN)C(=O)NCCOCCOCC(=O)NCCOCCOCC(=O)NCCCCCCCCCCCCC(=O)O)NC(=O)[C@H](CC(=O)O)NC(=O)[C@H](C(C)(C)O)NC(=O)[C@H](CC2CCCCC2)NC(=O)[C@H](CCN)NC1=O` [Compound 2920] ({CH2CO}-[Ala(morpholin-4-yl)]Y(Carboxymethyl)D[Phe(3-CF3)][Phe(4-COOH)][Bip][Phe(4-COOH)][Orn][dL][Dab][Cha][Val(3-OH)]DC[Dab][AEEA][AEEA]-{NH(CH2)12COOH}; thioether N-14) is 7.59.
